From patent US11236122B2, “Triterpene amine derivatives” (DFH THERAPEUTICS, priority 2018, dated 2022) come the findings set out here.

In one data set the test system is WT pNL4-3. Kind of data set: CA-SP1 accumulation assay, WT NL4-3. Format: cell-based, HIV-1. Conditions: 10 nM compound, HeLa or 293T cells. As for the experimental part: (§1) Cell culture, plasmids and transfections. The MT-4 T-cell line was maintained in RPMI-1640 medium supplemented with 10% (vol/vol) fetal bovine serum (FBS), 2 mM glutamine, 100 U/mL penicillin and 100 μg/mL streptomycin at 37° C. in a humidified 5% CO2 atmosphere. HeLa and 293T cells were maintained in Dulbecco's modified Eagle's medium (DMEM) supplemented with 5% (vol/vol) FBS, 2 mM glutamine, 100 U/mL penicillin and 100 μg/mL streptomycin. Molecular clones used in this study were WT pNL4-3 and the derivative encoding a Val-to-Ala mutation at SP1 residue 7, referred to as SP1-V7A. The MT-4 T-cell line was transfected the DEAE/dextran procedure; HeLa and 293T cells were transfected with linear polyethylenimine (L-PEI) or Lipofectamine 2000 (Invitrogen) as recommended by the supplier.
(§2) CA-SP1 accumulation assay. For CA-SP1 accumulation assays, HeLa or 293T cells were transfected with WT pNL4-3 or the SP1-V7A derivative. At 24 h post-transfection, cells were starved in Met/Cys-free medium for 30 min and metabolically labeled with [^35S]Met/Cys-Pro-mix (Amersham) for 2-3 h. Maturation inhibitors were maintained in the cultures throughout the transfection and labeling period. Viruses were collected by ultracentrifugation at 99,000×g for 45-60 min. Virus pellets were resuspended in Triton X-100 lysis buffer [300 mM NaCl, 50 mM Tris-HCl (pH 7.5), 0.5% Triton X-100, 10 mM iodoacetamide, and protease inhibitor cocktail tablets (Roche)]. CA and CA-SP1 proteins were separated on 13.5-15% polyacrylamide gels by SDS-polyacrylamide gel electrophoresis, exposed to a phosphorimager plate (Fuji) and quantified by Quantity One software (Bio-Rad).

The next data set has as its system pNL4-3 SP1-V7A. Kind of data set: CA-SP1 accumulation assay, SP1-V7A derivative. The note with it: 10 nM compound, HeLa or 293T cells. The data set is classed as cell-based, HIV-1. As to the method: as §1, §2
For data set [1], the system named is panel of HIV-1 isolates in human PBMCs. Put plainly: PBMC antiviral assay against a panel of HIV-1 isolates (RT activity). The data set is classed as cell-based. Conditions: Human immunodeficiency virus 1, PBMC. As for the experimental part:
Antiviral assays. To produce HIV-1 stocks, 293T cells were transfected with WT pNL4-3 or the SP1-V7A derivative and culture supernatants were collected 24 h post transfection. RT-normalized virus supernatants were used to infect MT-4 cells at room temperature for 30 min. Cells were then cultured in the presence of serial dilutions of compounds. At 4 d post-infection, the culture supernatants were subjected to RT assay to monitor viral replication. The 50% inhibitory concentrations (IC50s) were defined as compound concentrations that reduced RT levels to 50% those measured in the absence of inhibitor (DMSO only controls) using GraphPad Prism 6 software. The IC50s in primary peripheral blood mononuclear cells (PBMCs) were calculated with a multi-clade panel of HIV-1 isolates by Southern Research Institute (Frederick, Md.). The PBMCs were stimulated with phytohemagglutinin (PHA) and IL-2 prior to use in the antiviral assays.
Virus Isolates. Compound evaluation against a panel of HIV-1 isolates were performed by the Southern Research Institute (SRI). The viruses were chosen to include one isolate from each of the seven HIV-1 Group M envelope subtypes A, B, C, D, E, F, and G, as well as isolates from HIV-1 Groups O and N. In addition, various drug resistant HIV-1 isolates were included for evaluation. The HIV-1 isolates selected include CCR5-tropic and CXCR4-tropic isolates. Unless otherwise noted, all virus isolates were obtained from the NIH AIDS Research and Reference Reagent Program. Virus isolate 1022-48 was obtained from Dr. William A. Schief of Merck Research Laboratories. MDR769 and MDR807 were obtained from Dr. Thomas C. Merigan of Stanford University. A low passage stock of each virus was prepared using fresh human PBMCs and stored in liquid nitrogen. Pre-titered aliquots of each virus were removed from the freezer and thawed rapidly to rt in a biological safety cabinet immediately before use.
(§3) Human PBMC Preparation. Fresh human PBMCs were isolated from screened donors, seronegative for HIV and HBV (Biological Specialty Corporation, Colmar, Pa.). Cells were pelleted/washed 2-3 times by low speed centrifugation and resuspension in Dulbecco's phosphate buffered saline (PBS) to remove contaminating platelets. The leukophoresed blood was then diluted 1:1 with PBS and layered over 14 mL of Ficoll-Hypaque density gradient (Lymphocyte Separation Medium, Cell Grow #85-072-CL, density 1.078+/−0.002 g/mL) in a 50 mL centrifuge tube and then centrifuged for 30 min at 600×g. Banded PBMCs were gently aspirated from the resulting interface and subsequently washed twice with PBS by low speed centrifugation. After the final wash, cells were enumerated by trypan blue exclusion and re-suspended at 1×10^6 cells/mL in RPMI 1640 supplemented with 15% Fetal Bovine Serum (FBS), 2 mM L-glutamine, 100 U/mL penicillin, […] streptomycin, and 4 μg/mL Phytohemagglutinin (PHA; Sigma, St. Louis, Mo.; cat #L1668). The cells were allowed to incubate for 48-72 h at 37° C. After incubation, PBMCs were centrifuged and resuspended in RPMI 1640 with 15% FBS, L-glutamine, penicillin, streptomycin, non-essential amino acids (MEM/NEAA; Hyclone; cat #SH30238.01), and 20 U/mL recombinant human IL-2 (R&D Systems Inc., Minneapolis, Minn.; cat #202IL). PBMCs were maintained in this medium at a concentration of 1-2×10^6 cells/mL, with twice-weekly medium changes until they were used in the assay protocol. Monocytes-derived-macrophages were depleted from the culture as the result of adherence to the tissue culture flask.
PBMC Assay. For the standard PBMC assay, PHA stimulated cells from at least two normal donors were pooled (mixed together), diluted in fresh medium to a final concentration of 1×10^6 cells/mL, and plated in the interior wells of a 96 well round bottom microplate at 50 μL/well (5×10^4 cells/well) in a standard formate developed by the Infectious Disease Research Department of the SRI. […]

The next data set can be described thus: in vitro. Format: cell-based. The note with it: human. As for the experimental part:
as §3
(§4) PBMC Assay. For the standard PBMC assay, PHA stimulated cells from at least two normal donors were pooled (mixed together), diluted in fresh medium to a final concentration of 1×10^6 cells/mL, and plated in the interior wells of a 96 well round bottom microplate at 50 μL/well (5×10^4 cells/well) in a standard formate developed by the Infectious Disease Research Department of the SRI. Pooling (mixing) of mononuclear cells from more than one donor was used to minimize the variability observed between individual donors, which results from quantitative and qualitative differences in HIV infection and overall response to the PHA and IL-2 of primary lymphocyte populations. Each plate contains virus control wells (cells plus virus) and experimental wells (drug plus cells plus virus). Test drug dilutions were prepared at a 2× concentration in microtiter tubes and 100 μL of each concentration was placed in appropriate wells using the standard format. 50 μL of a predetermined dilution of virus stock was placed in each test well (final MOI≈0.1). Separate plates were prepared identically without virus for drug cytotoxicity studies using an MTS assay system (described below; cytotoxicity plates also include compound control wells containing drug plus media without cells to control for colored compounds that affect the MTS assay). The PBMC cultures were maintained for seven days following infection at 37° C., 5% CO2. After this period, cell-free supernatant samples were collected for analysis of reverse transcriptase activity, and compound cytotoxicity was measured by addition of MTS to the separate cytotoxicity plates for determination of cell viability. Wells were also examined microscopically and any abnormalities were noted.
(§5) MTS Staining for PBMC Viability to Measure Cytotoxicity. At assay termination, the uninfected assay plates were stained with the soluble tetrazolium-based dye MTS (CellTiter 96 Reagent, Promega) to determine cell viability and quantify compound toxicity. MTS is metabolized by the mitochondria enzymes of metabolically active cells to yield a soluble formazan product, allowing the rapid quantitative analysis of cell viability and compound cytotoxicity. […] At termination of the assay, […] of MTS reagent was added per well and the microtiter plates were then incubated at 37° C., 5% CO2 to assess cell viability. […]

Another data set relates to human PBMCs. Put plainly: in vitro. The note with it: 7 days. Format: cell-based. As for the experimental part: as §3, §4, §5

Broadly, the IC50 is the concentration that inhibits the measured activity by half. As a reminder, the CC50 is the concentration that lowers cell viability or growth by half. `C=C(C)[C@@H]1CC[C@]2(CCNCCN3CCN(Cc4ccc(Cl)cc4)CC3)CC[C@]3(C)[C@H](CC[C@@H]4[C@@]5(C)CC[C@H](OC(=O)CC(C)(C)C(=O)O)C(C)(C)[C@@H]5CC[C@]43C)[C@@H]12` [Compound 51n, (3β)-17-[2-[[2-[4-(4-Chlorophenylmethyl)piperazin-1-yl]ethyl]amino]ethyl]-28-norlup-20(29)-en-3-ol, 3-(1-Hydrogen 2,2-Dimethylbutanedioate)]: the “% CA-SP1 Accumulation 10 nM NL4-3” value in the data set with WT pNL4-3 is 46.9%. Besides, the “% CA-SP1 Accumulation 10 nM SP1 V7A” value in the data set with pNL4-3 SP1-V7A is on record as 38.2 (3) %. Further, the IC50 in data set [1] (isolate 92RW009, PBMC) was found to be 25.9 nM; in data set [1] (isolate 92UG001, PBMC), 5.3 nM; in data set [1] (isolate 93BR020, PBMC) it was 12.8 nM; in data set [1] (isolate 93BR029, PBMC), 18.4 nM; in data set [1] (isolate 93IN101, PBMC) it was 23.3 nM; in data set [1] (isolate 99UGA07412MI, PBMC), 31.4 nM. In addition, the IC50 in data set [1] (isolate BCF02, PBMC) was 22 nM; in data set [1] (isolate CMU02, PBMC) it was 17.3 nM; in data set [1] (isolate JV1083, PBMC) it was 311 nM. Moreover, in “in vitro”, the cytotoxic concentration (CC50) at 7 days is above 1000 nM. Also, the CC50 with human PBMCs is above 1000 nM.

`C=C(C)[C@@H]1CC[C@]2(CCNCCN3CCN(Cc4cccc(F)c4)CC3)CC[C@]3(C)[C@H](CC[C@@H]4[C@@]5(C)CC[C@H](OC(=O)CC(C)(C)C(=O)O)C(C)(C)[C@@H]5CC[C@]43C)[C@@H]12` [Compound 51m, (3β)-17-[2-[[2-[4-(3-Fluorophenylmethyl)piperazin-1-yl]ethyl]amino]ethyl]-28-norlup-20(29)-en-3-ol, 3-(1-Hydrogen 2,2-Dimethylbutanedioate)]: in the data set with WT pNL4-3, the “% CA-SP1 Accumulation 10 nM NL4-3” value was 53.7%. The “% CA-SP1 Accumulation 10 nM SP1 V7A” value with pNL4-3 SP1-V7A is reported as 40.3 (3) %. Also, the IC50 came out at 27.9 nM in data set [1] (isolate 92RW009, PBMC); 7.9 nM in data set [1] (isolate 92UG001, PBMC); 8.4 nM in data set [1] (isolate 93BR020, PBMC); 10.8 nM in data set [1] (isolate 93BR029, PBMC); 21.5 nM in data set [1] (isolate 93IN101, PBMC); 17.8 nM in data set [1] (isolate 99UGA07412MI, PBMC). Also, the IC50 was 16.7 nM in data set [1] (isolate BCF02, PBMC); 18.8 nM in data set [1] (isolate CMU02, PBMC); above 1000 nM in data set [1] (isolate JV1083, PBMC). In “in vitro”, the CC50 at 7 days was above 1000 nM. In addition, in the data set with human PBMCs, the CC50 is above 1000 nM.

For `C=C(C)[C@@H]1CC[C@]2(CCNCCN3CCN(Cc4cccc(Cl)c4)CC3)CC[C@]3(C)[C@H](CC[C@@H]4[C@@]5(C)CC[C@H](OC(=O)CC(C)(C)C(=O)O)C(C)(C)[C@@H]5CC[C@]43C)[C@@H]12` [Compound 51o, (3β)-17-[2-[[2-[4-(3-Chlorophenylmethyl)piperazin-1-yl]ethyl]amino]ethyl]-28-norlup-20(29)-en-3-ol, 3-(1-Hydrogen 2,2-Dimethylbutanedioate)], in the data set with WT pNL4-3, the “% CA-SP1 Accumulation 10 nM NL4-3” value is reported as 55.7%. Besides, the “% CA-SP1 Accumulation 10 nM SP1 V7A” value with pNL4-3 SP1-V7A is 39.4 (3) %. Also, the IC50 in data set [1] (isolate 92RW009, PBMC) stood at 60.9 nM; in data set [1] (isolate 92UG001, PBMC), 8.1 nM; in data set [1] (isolate 93BR020, PBMC) it was 13.2 nM; in data set [1] (isolate 93BR029, PBMC), 14.8 nM; in data set [1] (isolate 93IN101, PBMC), 24.8 nM; in data set [1] (isolate 99UGA07412MI, PBMC), 33.2 nM. For the same compound, the IC50 in data set [1] (isolate BCF02, PBMC) stood at 38.1 nM; in data set [1] (isolate CMU02, PBMC), 25 nM; in data set [1] (isolate JV1083, PBMC), 220 nM. For the same compound, in “in vitro”, the CC50 at 7 days was above 1000 nM. The same compound yielded a CC50 in the data set with human PBMCs above 1000 nM.

For `C=C(C)[C@@H]1CC[C@]2(CCNCCN3CCN(Cc4ccc5ccccc5c4)CC3)CC[C@]3(C)[C@H](CC[C@@H]4[C@@]5(C)CC[C@H](OC(=O)CC(C)(C)C(=O)O)C(C)(C)[C@@H]5CC[C@]43C)[C@@H]12` [Compound 51r, (3β)-17-[2-[[2-[4-(2-Naphthalenylmethyl)piperazin-1-yl]ethyl]amino]ethyl]-28-norlup-20(29)-en-3-ol, 3-(1-Hydrogen 2,2-Dimethylbutanedioate)], the “% CA-SP1 Accumulation 10 nM NL4-3” value in the data set on WT pNL4-3 was 44.3%. In addition, the “% CA-SP1 Accumulation 10 nM SP1 V7A” value in the data set with pNL4-3 SP1-V7A was 34.1 (3) %. The IC50 was above 1000 nM in data set [1] (isolate 92RW009, PBMC); 25.5 nM in data set [1] (isolate 92UG001, PBMC); 26 nM in data set [1] (isolate 93BR020, PBMC); 22.3 nM in data set [1] (isolate 93BR029, PBMC); 207 nM in data set [1] (isolate 93IN101, PBMC); 370 nM in data set [1] (isolate 99UGA07412MI, PBMC). The IC50 was 62.3 nM in data set [1] (isolate BCF02, PBMC); above 1000 nM in data set [1] (isolate CMU02, PBMC); above 1000 nM in data set [1] (isolate JV1083, PBMC). The compound also yielded a CC50 at 7 days in the data set “in vitro” above 1000 nM. The compound also had a CC50 in the data set on human PBMCs above 1000 nM.
